Consider 7 compounds from article PMC7076710, “Synthesis, Identification, and Structure–Activity Relationship Analysis of GATA4 and NKX2-5 Protein–Protein Interaction Modulators” (Journal of Medicinal Chemistry, 2019).

What all share (format): cell-based
The test system of series [1] is COS-1 cells. In words: MTT assay (cell viability). The conditions noted are these: for MTT.1µM / MTT.3µM / MTT.10µM / MTT.30µM: cell viability; for toxicity class in the MTT assay: 24-h exposure, classified at 10 μM. (In general: Formazan colour is commonly taken as a measure of viable cells.)
Series [2] relates to COS-1 cells. In words: LDH assay (necrosis).
Series [3] deals with COS-1 cells. Description: ATP assay (CellTiter-Glo cell viability). The following applies: 24-h exposure; for reduction of cell viability (ATP content): 10 μM. From the text:
To investigate the toxicity as a potential cause of decreased or increased activity in luciferase reporter gene assays, we tested a set of 40 active compounds in the COS-1 cell line used for the luciferase assays. Concentration-dependent toxic effects were investigated using the lactate dehydrogenase (LDH) assay to detect necrosis and the 3-(4,5-dimethylthiazol-2-yl)-2,5-diphenyltetrazolium bromide (MTT) assay as a measure of cell viability. […] For the data analysis, compounds were classified as toxic (Figures 5 and 7) if they induced a >10% decrease in cell viability in the MTT assay at the concentration of 10 μM. The most toxic compounds (35a, 35d, 54, 58, and 63–65) in the MTT assay all contained a phenyl substituent in the southern part ring, while the ortho-nitrophenyl-derivative 39g and the phenyl-substituted thiophene 47t were nontoxic. Higher flexibility in the central parts of the ethers (35a, 35d) and N-acylated amines (58, 64) might contribute to their toxicity, because less rigid compounds are more likely to have affinity to various biological targets. Such interactions can cause toxicity. To confirm and validate the results from MTT assays, we tested three nontoxic (2, 47s, and 72) and three toxic (1, 35a, and 58) compounds in a cell viability assay measuring intracellular ATP content.
Figure 5 Effects of selected compounds on COS-1 cell viability. (A) Compound-induced necrosis was quantified with the LDH assay after a 24-h compound exposure. The data are presented as cytotoxicity percentage (% of maximal LDH release). (B) Cell viability was analyzed with the MTT assay after a 24-h compound exposure. (A,B) The data are means from 2–3 independent experiments with 3 replicate wells in each and are presented as % of control (vehicle-treated cells). The compounds have been grouped on the basis of the structure of the central part: a, amide; b, ether; c, N-acylated amine; d, amine; and e, imine. (C) The effects of selected compounds on cell viability as determined by ATP content after a 24-h compound exposure. The data are mean + SEM from three independent experiments and are presented as % of vehicle-treated cells.
A selected set of compounds were tested also in the ATP assay by using CellTiter-Glo Luminescent Cell Viability assay (Promega). Subculturing and treatment of COS-1 cells were otherwise performed similar to that in the MTT test, but the final volume of treatment was 200 μL per well. Doxorubicin was used as a positive control in the assay. After treatment, the plates were equilibrated at room temperature for 30 min, after which the media was removed and cells were washed with 100 μL of PBS. Next, 50 μL of fresh media and 50 μL of mixed CellTiter Glo Reagent were added to the plate. The contents of the plates were mixed for 2 min, and incubated at room temperature for 15 min. The luminescence was measured with VarioskanTM LUX Multimode Plate Reader (Thermo Fisher Scientific, Waltham, MA) using SkanItTM Software 5.0.
For orientation: Cellular ATP, detected with luciferase, serves as a proxy for viable cell number.

On to `CCN(CC)c1ccc(NC(=O)c2c(-c3ccccc3)noc2C)cc1` [Compound 1, N-[4-(Diethylamino)phenyl]-5-methyl-3-phenylisoxazole-4-carboxamide], for which, in the series on COS-1 cells [1] (COS-1 cells), the MTT.1µM was 98.55%, the MTT.3µM is given as 96.23%, the MTT.10µM is given as 89.96% and the MTT.30µM was found to be 91.57%. For the same compound, in the series on COS-1 cells [1], the “toxicity class in the MTT assay” value is recorded as “toxic (Toxic compounds (cell viability <90%))”. Besides, in the series on COS-1 cells [2] (COS-1 cells), the LDH.1µM came out at 1.16, the LDH.3µM is recorded as 0.89, the LDH.10µM is listed as -0.76 and the LDH.30µM is -0.02. Besides, the “reduction of cell viability (ATP content)” value (shortened to “reduction of cell viability”) with COS-1 cells [3] is recorded as more than 10%.
In the series on COS-1 cells [1], `CCN(CC)c1ccc(NC(=O)c2cnsc2)cc1` [Compound 47s] displayed an MTT.1µM of 103.66, an MTT.3µM of 95.56, an MTT.10µM of 92.49 and an MTT.30µM of 105.44. In the series with COS-1 cells [1], the “toxicity class in the MTT assay” value is “nontoxic (nontoxic compounds (cell viability >90%))”. In the series with COS-1 cells [2], this compound yielded an LDH.1µM of 3.18, an LDH.3µM of 0.65, an LDH.10µM of 1.08 and an LDH.30µM of 0.91. In the series on COS-1 cells [3], the “toxicity in the ATP assay (in words)” value is listed as “no toxicity”.
Regarding `COc1ccc(-c2cc(NC(=O)c3ccc(C(C)(C)C)cc3)n[nH]2)cc1` [Compound 72], in the series with COS-1 cells [1], the MTT.1µM stood at 110.93, the MTT.3µM is given as 101.15, the MTT.10µM amounted to 102.37 and the MTT.30µM worked out at 107.89. In addition, in the series on COS-1 cells [1], the “toxicity class in the MTT assay” value is “nontoxic (nontoxic compounds (cell viability >90%))”. In the series on COS-1 cells [2], this compound came in with an LDH.1µM of 2.2, an LDH.3µM of 0.82, an LDH.10µM of 0.22 and an LDH.30µM of -0.27. Moreover, the “toxicity in the ATP assay (in words)” value with COS-1 cells [3] was “no toxicity”.
Consider “N-[4-(Diethylamino)phenyl]-3-methyl-5-(4-methyl-1,2,3-thiadiazol-5-yl)isoxazole-4-carboxamide [Compound 47c]”, for which, in the series on COS-1 cells [1], the MTT.1µM was found to be 88.76, the MTT.3µM is reported as 85.01, the MTT.10µM is 81.61 and the MTT.30µM was 78.65. Further, the “toxicity class in the MTT assay” value with COS-1 cells [1] was “high toxicity”. In the series with COS-1 cells [2], this compound came in with an LDH.1µM of -0.01, an LDH.3µM of -0.17, an LDH.10µM of 0.1 and an LDH.30µM of -0.11.
In the series with COS-1 cells [1], `Cc1onc(-c2ccccc2)c1COc1ccc(C(=O)OCCC#N)cc1` [Compound 35a, 2-Cyanoethyl 4-[(5-Methyl-3-phenylisoxazol-4-yl)methoxy]benzoate] had an MTT.1µM of 83.35, an MTT.3µM of 72.67, an MTT.10µM of 66.11 and an MTT.30µM of 61.55. In addition, the “toxicity class in the MTT assay” value in the series on COS-1 cells [1] is given as “most toxic”. Further, in the series on COS-1 cells [2], the LDH.1µM is on record as 0.51, the LDH.3µM was 1.44, the LDH.10µM came to 1.72 and the LDH.30µM was 1. Also, the “reduction of cell viability” value in the series on COS-1 cells [3] was more than 10%.
`CCC(=O)N(Cc1ccc(N(CC)CC)cc1)c1c(-c2ccccc2)noc1C` [Compound 58]: in the series with COS-1 cells [1], the MTT.1µM was determined as 99.35, the MTT.3µM was found to be 82.12, the MTT.10µM is on record as 76.17 and the MTT.30µM was found to be 63.57. Besides, in the series on COS-1 cells [1], the “toxicity class in the MTT assay” value was “most toxic”. Moreover, in the series on COS-1 cells [2], the LDH.1µM came to 0.36, the LDH.3µM was -0.8, the LDH.10µM is recorded as -1.03 and the LDH.30µM was 1.47. Also, the “reduction of cell viability” value in the series on COS-1 cells [3] is listed as more than 10%.
In the series with COS-1 cells [1] (COS-1 cells), `Cc1onc(-c2ccccc2)c1C(=O)N(C1=NC(C)CS1)c1ccc(Cl)cc1` (centres unmarked) [Compound 2] returned an MTT.3µM of 105.13%, an MTT.10µM of 107.32% and an MTT.30µM of 87.3%. Besides, in the series on COS-1 cells [1], the “toxicity class in the MTT assay” value is on record as “nontoxic (nontoxic compounds (cell viability >90%))”. In the series on COS-1 cells [2] (COS-1 cells), this compound displayed an LDH.1µM of 1.6, an LDH.3µM of 1.4, an LDH.10µM of 1.08 and an LDH.30µM of 1.02. Also, in the series on COS-1 cells [3], the “toxicity in the ATP assay (in words)” value was “no toxicity”.
